{
  "source": "patent US8404677B2",
  "about": "“Kinase inhibitors” (Genosco, priority 2009, dated 2013)",
  "key": {"[1]": {"system": "TNF-α release in THP-1 cells, IgG stimulation", "assay": "SYK dependent TNF-α release assay (IgG stimulation)", "format": "cell-based, human", "protocol": "Compounds of the invention were tested for their TNF-α release effect on THP-1 cells. For SYK dependent TNF-α release assay (i.e., via IgG stimulation), THP-1 cells derived from human monocytic cells were obtained from the American Type Culture Collection (ATCC, Manassas, Va.). This cell line was maintained with an Roswell Park Memorial Institute (RPMI) medium (GIBCO™) containing 10 fetal bovine serum (FBS; GIBCO™) and 0.05 mM 2-mercaptoethanol. The THP-1 cells were seeded at 1×10^5 cells/100 μL/well into human IgG ([…], INVITROGEN™)-coated 96 well culture plate, and serially diluted compound was then added. After an 18-hour incubation period at 37° C., supernatants were collected for the determination of the TNF-α level by enzyme-linked immunosorbent assay (ELISA), and the remaining cells were subjected to an MTT (yellow tetrazolium salt) assay to determine the cytotoxic effects of compound."}, "CCRF-CEM": {"system": "CCRF-CEM", "assay": "cells", "format": "cell-based", "settings": "CCRF-CEM (Leukemia)"}, "HL-60(TB)": {"system": "HL-60(TB)", "assay": "cells", "format": "cell-based", "settings": "HL-60(TB) (Leukemia)"}, "A549/ATCC": {"system": "A549/ATCC", "assay": "cells", "format": "cell-based", "settings": "A549/ATCC (NSCLC)"}, "NCI-H322M": {"system": "NCI-H322M", "assay": "cells", "format": "cell-based", "settings": "NCI-H322M (NSCLC)"}, "COLO 205": {"system": "COLO 205", "assay": "cells", "format": "cell-based", "settings": "COLO 205 (Colon Cancer)"}, "HCC-2998": {"system": "HCC-2998", "assay": "cells", "format": "cell-based", "settings": "HCC-2998 (Colon Cancer)"}, "SNB-75": {"system": "SNB-75", "assay": "cells", "format": "cell-based", "settings": "SNB-75 (CNS Cancer)"}, "MDA-MB-435": {"system": "MDA-MB-435", "assay": "cells", "format": "cell-based", "settings": "MDA-MB-435 (Melanoma)"}, "SK-MEL-28": {"system": "SK-MEL-28", "assay": "cells", "format": "cell-based", "settings": "SK-MEL-28 (Melanoma)"}, "SK-MEL-5": {"system": "SK-MEL-5", "assay": "cells", "format": "cell-based", "settings": "SK-MEL-5 (Melanoma)"}, "OVCAR-8": {"system": "OVCAR-8", "assay": "cells", "format": "cell-based", "settings": "OVCAR-8 (Ovarian Cancer)"}, "PC-3": {"system": "PC-3", "assay": "cells", "format": "cell-based", "settings": "PC-3 (Prostate Cancer)"}, "PYK2": {"target": "PYK2 (Homo sapiens, UniProt Q14289)", "sequence (Q14289 whole entry)": "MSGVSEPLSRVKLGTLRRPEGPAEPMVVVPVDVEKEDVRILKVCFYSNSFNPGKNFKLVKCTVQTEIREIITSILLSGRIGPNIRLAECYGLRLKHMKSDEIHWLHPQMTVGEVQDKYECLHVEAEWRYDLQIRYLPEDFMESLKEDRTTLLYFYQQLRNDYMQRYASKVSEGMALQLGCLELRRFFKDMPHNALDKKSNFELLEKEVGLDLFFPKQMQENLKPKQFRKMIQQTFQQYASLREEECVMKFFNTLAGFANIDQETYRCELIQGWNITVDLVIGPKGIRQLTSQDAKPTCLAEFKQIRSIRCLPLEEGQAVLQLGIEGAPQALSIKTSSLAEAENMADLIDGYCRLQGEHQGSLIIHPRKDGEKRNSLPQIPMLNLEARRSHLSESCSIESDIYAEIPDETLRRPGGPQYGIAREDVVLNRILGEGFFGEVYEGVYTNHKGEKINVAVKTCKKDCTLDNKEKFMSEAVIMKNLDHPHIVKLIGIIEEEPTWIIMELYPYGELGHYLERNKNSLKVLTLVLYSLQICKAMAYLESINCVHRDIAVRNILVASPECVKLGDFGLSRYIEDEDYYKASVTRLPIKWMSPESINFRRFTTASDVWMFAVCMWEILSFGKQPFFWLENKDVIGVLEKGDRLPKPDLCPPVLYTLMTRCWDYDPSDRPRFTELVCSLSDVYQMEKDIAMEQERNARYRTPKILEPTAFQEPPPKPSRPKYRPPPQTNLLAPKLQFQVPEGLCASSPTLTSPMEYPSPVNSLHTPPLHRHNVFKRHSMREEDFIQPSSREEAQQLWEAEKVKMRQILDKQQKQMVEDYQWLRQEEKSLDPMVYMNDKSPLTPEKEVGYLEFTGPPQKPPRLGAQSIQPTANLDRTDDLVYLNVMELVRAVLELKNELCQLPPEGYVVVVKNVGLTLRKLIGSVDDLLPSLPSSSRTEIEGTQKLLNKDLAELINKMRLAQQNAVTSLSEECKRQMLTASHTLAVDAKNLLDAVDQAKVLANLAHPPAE", "assay": "In vitro kinase inhibition, Ambit Biosciences panel", "format": "binding", "set-up": "purchased Ambit Biosciences", "settings": "lower numbers indicate stronger activities", "protocol": "(§1) Up to 518 different kinases have been identified in humans. They act on small molecules such as lipids, carbohydrates, amino acids, and nucleotides. To determine the scope of inhibitory effects of a representative compound of Formula (I) on known kinases, Compound 6 was tested against 104 commercially available kinases (Ambit Biosciences™) in vitro. 104 kinases included ABL1(E255K)-phosphorylated, ABL1(T315I)-phosphorylated, ABL1-phosphorylated, ACVR1B, ADCK3, AKT1, AKT2, ALK, AURKA, AURKB, AXL, BMPR2, BRAF, BRAF(V600E), BTK, CDK11, CDK2, CDK3, CDK7, CDK9, CHEK1, CSF1R, CSNK1D, CSNK1G2, DCAMKL1, DYRK1B, EGFR, EGFR(L858R), EPHA2, ERBB2, ERBB4, ERK1, FAK, FGFR2, FGFR3, FLT1, FLT3, FLT4, GSK3B, IGF1R, IKK-α, IKK-β, INSR, JAK2(JH1domain-catalytic), JAK3(JH1domain-catalytic), JNK1, JNK2, JNK3, KIT, KIT(D816V), KIT(V559D,T670I), LKB1, LRRK2, LRRK2(G2019S), MAP3K4, MAPKAPK2, MARK3, MEK1, MEK2, MET, MKNK1, MKNK2, MLK1, MTOR, p38-alpha, p38-beta, PAK1, PAK2, PAK4, PCTK1, PDGFRA, PDGFRB, PDPK1, PIK3C2B, PIK3CA, PIK3CG, PIM1, PIM2, PIM3, PKAC-alpha, PLK1, PLK3, PLK4, PRKCE, PYK2, RAFT, RET, RIOK2, ROCK2, RSK2, SNARK, SRC, SRPK3, SYK, TAK1, TGFBR1, TIE2, TRKA, TSSK1B, TYK2(JH1domain-catalytic), ULK2, VEGFR2, YANK3 and ZAP70.\n(§2) Inhibition activity of Compound 6 was reported as percent control where lower numbers indicate stronger activities. […]"}, "SYK": {"target": "SYK (Homo sapiens, UniProt P43405)", "assay": "In vitro kinase inhibition, Ambit Biosciences panel", "format": "binding", "set-up": "purchased Ambit Biosciences", "settings": "lower numbers indicate stronger activities", "protocol": "as §1, §2"}, "[2]": {"settings": "Homo sapiens, read-out: LC50 (the source's name)"}},
  "note": "pIC50: −log10 of the molar value.",
  "data": [
    {"smiles": "O=c1[nH]ccc2nc(N3CCC(O)CC3)nc(Nc3cccc(C(F)(F)F)c3)c12", "note": "[Compound 6, 2-(4-hydroxypiperidin-1-yl)-4-(3-(trifluoromethyl)phenylamino)pyrido[4,3-d]pyrimidine-5(6H)-one]", "values": [
      {"measurement": "inhibition at 0.3 µM", "setting": "[1]; Homo sapiens, IgG stimulation, At 0.3 μM, THP-1, read-out: Inhibition of TNF-α Release (percentage inhibition)", "result": 51.9, "unit": "%"},
      {"measurement": "inhibition at 1 µM", "setting": "[1]; Homo sapiens, IgG stimulation, At 1 μM, THP-1, read-out: Inhibition of TNF-α Release (percentage inhibition)", "result": 83, "unit": "%"},
      {"measurement": "percentage inhibition of TNF-α release compared with R406", "setting": "[1]; IgG stimulated release, 0.3 μM", "result": "greater than those exhibited by R406"},
      {"measurement": "TGI", "setting": "CCRF-CEM", "result": 100, "unit": "µM"},
      {"measurement": "GI50", "setting": "CCRF-CEM; Homo sapiens", "result": 2.09, "unit": "µM"},
      {"measurement": "pIC50", "setting": "CCRF-CEM; Homo sapiens", "result": 5.39},
      {"measurement": "LC50", "setting": "CCRF-CEM; Homo sapiens", "result": 100, "unit": "µM"},
      {"measurement": "TGI", "setting": "HL-60(TB)", "result": 5.01, "unit": "µM"},
      {"measurement": "GI50", "setting": "HL-60(TB); Homo sapiens", "result": 0.871, "unit": "µM"},
      {"measurement": "pIC50", "setting": "HL-60(TB); Homo sapiens", "result": 5.73},
      {"measurement": "CC50", "setting": "HL-60(TB); [2]", "result": 100, "unit": "µM"},
      {"measurement": "TGI", "setting": "A549/ATCC", "result": 100, "unit": "µM"},
      {"measurement": "GI50", "setting": "A549/ATCC; Homo sapiens", "result": 3.8, "unit": "µM"},
      {"measurement": "pIC50", "setting": "A549/ATCC; Homo sapiens", "result": 5.20},
      {"measurement": "CC50", "setting": "A549/ATCC; [2]", "result": 100, "unit": "µM"},
      {"measurement": "GI50", "setting": "NCI-H322M; Homo sapiens", "result": 2.29, "unit": "µM"},
      {"measurement": "pIC50", "setting": "NCI-H322M; Homo sapiens", "result": 4.67},
      {"measurement": "CC50", "setting": "NCI-H322M; [2]", "result": 100, "unit": "µM"},
      {"measurement": "TGI", "setting": "NCI-H322M", "result": 28.8, "unit": "µM"},
      {"measurement": "TGI", "setting": "COLO 205", "result": 14.5, "unit": "µM"},
      {"measurement": "GI50", "setting": "COLO 205; Homo sapiens", "result": 3.09, "unit": "µM"},
      {"measurement": "pIC50", "setting": "COLO 205; Homo sapiens", "result": 5.28},
      {"measurement": "CC50", "setting": "COLO 205; [2]", "result": 45.7, "unit": "µM"},
      {"measurement": "TGI", "setting": "HCC-2998", "result": 38, "unit": "µM"},
      {"measurement": "GI50", "setting": "HCC-2998; Homo sapiens", "result": 11.2, "unit": "µM"},
      {"measurement": "pIC50", "setting": "HCC-2998; Homo sapiens", "result": 4.60},
      {"measurement": "CC50", "setting": "HCC-2998; [2]", "result": 100, "unit": "µM"},
      {"measurement": "GI50", "setting": "SNB-75; Homo sapiens", "result": 5.75, "unit": "µM"},
      {"measurement": "pIC50", "setting": "SNB-75; Homo sapiens", "result": 4.11},
      {"measurement": "CC50", "setting": "SNB-75; [2]", "result": 100, "unit": "µM"},
      {"measurement": "TGI", "setting": "SNB-75", "result": 81.3, "unit": "µM"},
      {"measurement": "GI50", "setting": "MDA-MB-435; Homo sapiens", "result": 1.29, "unit": "µM"},
      {"measurement": "pIC50", "setting": "MDA-MB-435; Homo sapiens", "result": 5.59},
      {"measurement": "CC50", "setting": "MDA-MB-435; [2]", "result": 9.77, "unit": "µM"},
      {"measurement": "TGI", "setting": "MDA-MB-435", "result": 3.55, "unit": "µM"},
      {"measurement": "GI50", "setting": "SK-MEL-28; Homo sapiens", "result": 4.68, "unit": "µM"},
      {"measurement": "pIC50", "setting": "SK-MEL-28; Homo sapiens", "result": 4.96},
      {"measurement": "CC50", "setting": "SK-MEL-28; [2]", "result": 50.1, "unit": "µM"},
      {"measurement": "TGI", "setting": "SK-MEL-28", "result": 17.4, "unit": "µM"},
      {"measurement": "GI50", "setting": "SK-MEL-5; Homo sapiens", "result": 1.23, "unit": "µM"},
      {"measurement": "pIC50", "setting": "SK-MEL-5; Homo sapiens", "result": 5.67},
      {"measurement": "CC50", "setting": "SK-MEL-5; [2]", "result": 5.13, "unit": "µM"},
      {"measurement": "TGI", "setting": "SK-MEL-5", "result": 2.51, "unit": "µM"},
      {"measurement": "GI50", "setting": "OVCAR-8; Homo sapiens", "result": 3.31, "unit": "µM"},
      {"measurement": "pIC50", "setting": "OVCAR-8; Homo sapiens", "result": 5.30},
      {"measurement": "CC50", "setting": "OVCAR-8; [2]", "result": 100, "unit": "µM"},
      {"measurement": "TGI", "setting": "OVCAR-8", "result": 40.7, "unit": "µM"},
      {"measurement": "GI50", "setting": "PC-3; Homo sapiens", "result": 2.29, "unit": "µM"},
      {"measurement": "pIC50", "setting": "PC-3; Homo sapiens", "result": 5.33},
      {"measurement": "CC50", "setting": "PC-3; [2]", "result": 93.3, "unit": "µM"},
      {"measurement": "TGI", "setting": "PC-3", "result": 12.9, "unit": "µM"},
      {"measurement": "% inhibition (reported as percent control)", "setting": "PYK2", "result": 32, "unit": "%"},
      {"measurement": "% inhibition (reported as percent control)", "setting": "SYK", "result": 8.4, "unit": "%"}
    ]}
  ]
}
